Measurements from patent US9562035B2, “Benzamide derivative useful as FASN inhibitors for the treatment of cancer” (Janssen Pharmaceutica NV, priority 2013, dated 2017).

Legend:
[1] = molecular target: T1, hFASN enzyme (full length) (Homo sapiens, UniProt P49327); experiment: Fatty Acid Synthase (FASN) Inhibition Scintillation Proximity Assay; format: biochemical; settings: for IC50: mean where tested more than once, ~ = standard error of pIC50 larger than 0.5; for inhibition at 10 µM: read-out: FASN % Effect @1E−05M
T1 construct: 10 μL hFASN enzyme (full length, 300 ng, purified in house); made in house
Procedure, shortened: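 Eight compound concentrations (0.01–30 μM) tested in pH 7.5 phosphate buffer with DTT; human full-length enzyme converted [3H]-acetyl-CoA plus malonyl-CoA, with NADPH, over 60 min at room temperature. Hydrophobic [3H]-palmitate detected by bead proximity scintillation imaging; control-normalised data fitted for IC50/pIC50.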

[2] = tested on: A2780 ovarian cells; experiment: A2780 Ovarian Cell Proliferation Assay in Lipid Reduced Medium, without Palmitate; format: cell-based; settings: Homo sapiens, A2780; lipid reduced medium, without palmitate, 96 h, MTT; read-out: Proliferation A2780 w/o Palmitate pIC50 (converted)
Procedure, shortened: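 A2780 cells were seeded in 10% FCS medium and switched next day to 10% lipid-reduced serum without palmitate. Compounds at 0.01–30 μM were added with 0.2% DMSO, 0.2% fatty-acid-free BSA and 0.25% ethanol final. After 96 h, MTT absorbance at 544 nm was normalized to plate controls, and IC50/pIC50 came from a 4-parameter logistic fit.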

[3] = tested on: A2780 ovarian cells; experiment: A2780 Ovarian Cell Proliferation Assay in Lipid Reduced Medium, with Palmitate (control); format: cell-based; settings: Homo sapiens, A2780; lipid reduced medium, 25 μM palmitate, 96 h, MTT; read-out: Proliferation A2780 with Palmitate pIC50 (converted)
Procedure, shortened: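 Read-out was MTT absorbance at 544 nm after 96 h at 37 °C. Cells grown overnight in RPMI1640/10% FCS were moved to 10% lipid-reduced serum with compound plus palmitate (final 25 μM, 0.2% fatty-acid-free BSA, 0.2% DMSO). IC50 came from least-squares curve fitting, expressed as −log(IC50).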

[4] = molecular target: T2, FASN Keto-reductase Domain (Homo sapiens, UniProt P49327); experiment: Fatty Acid Synthase Keto-Reductase Domain (FASN KR) Inhibition; format: biochemical; settings: mean where tested more than once; read-out: FASN K-R Domain pIC50 (converted)
T2 construct: 10 μL hFASN enzyme (full length, 300 ng, purified in house) and 360 μM NADPH; made in house
Procedure, shortened: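 Keto-reductase activity followed as NADPH consumption (A340 drop between 0 and 20 min, room temperature) using in-house full-length hFASN, 360 μM NADPH and ethyl acetoacetate substrate (180 mM stock), pH 7.5 phosphate buffer.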

T1 sequence (P49327 whole entry): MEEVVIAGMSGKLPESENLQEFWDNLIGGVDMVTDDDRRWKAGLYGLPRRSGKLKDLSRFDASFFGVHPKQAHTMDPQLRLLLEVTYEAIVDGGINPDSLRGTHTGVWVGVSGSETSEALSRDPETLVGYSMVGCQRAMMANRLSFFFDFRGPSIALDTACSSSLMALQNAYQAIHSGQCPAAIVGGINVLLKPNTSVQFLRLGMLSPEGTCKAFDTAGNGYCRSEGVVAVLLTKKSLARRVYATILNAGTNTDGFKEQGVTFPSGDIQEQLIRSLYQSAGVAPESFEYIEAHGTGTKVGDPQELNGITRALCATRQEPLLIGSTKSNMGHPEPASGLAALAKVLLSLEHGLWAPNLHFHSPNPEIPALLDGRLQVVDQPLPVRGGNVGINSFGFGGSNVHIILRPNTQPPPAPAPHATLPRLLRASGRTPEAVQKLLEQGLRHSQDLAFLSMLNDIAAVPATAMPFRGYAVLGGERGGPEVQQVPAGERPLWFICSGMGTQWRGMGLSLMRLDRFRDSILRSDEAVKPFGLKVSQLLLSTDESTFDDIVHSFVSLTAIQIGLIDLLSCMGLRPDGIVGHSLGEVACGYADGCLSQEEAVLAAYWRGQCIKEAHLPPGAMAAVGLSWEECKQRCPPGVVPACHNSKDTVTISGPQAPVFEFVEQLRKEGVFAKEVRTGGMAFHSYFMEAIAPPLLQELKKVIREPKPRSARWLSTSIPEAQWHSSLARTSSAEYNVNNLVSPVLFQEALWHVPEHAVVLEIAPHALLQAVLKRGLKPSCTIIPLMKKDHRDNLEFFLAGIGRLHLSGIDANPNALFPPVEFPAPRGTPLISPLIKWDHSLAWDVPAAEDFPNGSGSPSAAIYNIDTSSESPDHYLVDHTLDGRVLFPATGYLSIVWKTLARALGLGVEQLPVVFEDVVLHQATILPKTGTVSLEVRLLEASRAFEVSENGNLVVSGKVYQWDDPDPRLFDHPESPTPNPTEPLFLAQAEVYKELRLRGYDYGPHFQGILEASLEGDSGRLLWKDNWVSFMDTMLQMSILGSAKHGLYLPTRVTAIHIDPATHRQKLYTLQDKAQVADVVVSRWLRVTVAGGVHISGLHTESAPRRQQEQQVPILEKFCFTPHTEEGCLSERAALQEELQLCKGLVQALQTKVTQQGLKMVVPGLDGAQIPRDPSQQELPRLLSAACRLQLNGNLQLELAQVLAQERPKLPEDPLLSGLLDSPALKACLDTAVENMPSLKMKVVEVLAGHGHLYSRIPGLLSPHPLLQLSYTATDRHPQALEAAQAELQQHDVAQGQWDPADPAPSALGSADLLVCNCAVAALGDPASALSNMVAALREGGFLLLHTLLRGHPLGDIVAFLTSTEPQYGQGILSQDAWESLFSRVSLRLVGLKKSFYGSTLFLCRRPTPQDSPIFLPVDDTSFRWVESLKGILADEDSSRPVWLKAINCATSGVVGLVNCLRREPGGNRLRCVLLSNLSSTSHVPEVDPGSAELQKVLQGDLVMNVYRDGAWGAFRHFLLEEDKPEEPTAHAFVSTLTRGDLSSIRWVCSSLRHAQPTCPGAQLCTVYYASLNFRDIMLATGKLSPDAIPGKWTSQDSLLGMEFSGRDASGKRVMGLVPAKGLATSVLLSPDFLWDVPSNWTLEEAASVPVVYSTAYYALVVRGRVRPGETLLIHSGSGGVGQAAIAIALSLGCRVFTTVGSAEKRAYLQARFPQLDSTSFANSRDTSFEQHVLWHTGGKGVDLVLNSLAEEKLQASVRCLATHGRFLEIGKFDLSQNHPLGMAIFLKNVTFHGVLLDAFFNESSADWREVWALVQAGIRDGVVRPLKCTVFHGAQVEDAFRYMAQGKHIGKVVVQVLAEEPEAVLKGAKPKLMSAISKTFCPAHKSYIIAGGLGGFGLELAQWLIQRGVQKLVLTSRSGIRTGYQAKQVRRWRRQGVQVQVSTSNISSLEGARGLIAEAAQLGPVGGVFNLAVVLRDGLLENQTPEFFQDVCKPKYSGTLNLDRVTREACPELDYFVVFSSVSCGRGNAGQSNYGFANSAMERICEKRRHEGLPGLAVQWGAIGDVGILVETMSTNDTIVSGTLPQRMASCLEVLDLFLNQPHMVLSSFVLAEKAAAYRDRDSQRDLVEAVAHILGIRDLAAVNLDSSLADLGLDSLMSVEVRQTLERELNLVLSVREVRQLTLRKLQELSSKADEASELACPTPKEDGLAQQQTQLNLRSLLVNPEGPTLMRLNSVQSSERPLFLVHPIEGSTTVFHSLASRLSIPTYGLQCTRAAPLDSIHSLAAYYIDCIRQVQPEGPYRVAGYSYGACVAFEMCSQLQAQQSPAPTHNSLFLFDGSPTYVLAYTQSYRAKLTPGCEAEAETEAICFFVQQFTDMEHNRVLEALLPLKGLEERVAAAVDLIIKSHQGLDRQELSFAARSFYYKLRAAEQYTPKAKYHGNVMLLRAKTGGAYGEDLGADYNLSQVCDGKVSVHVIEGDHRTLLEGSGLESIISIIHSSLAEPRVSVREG
T2 sequence (P49327 whole entry, the tested form may be a part): as the sequence (P49327 whole entry) above

| IC50 [1] [nM] | inhibition at 10 µM [1] [%] | IC50 [2] [nM] | IC50 [3] [nM] | IC50 [4] [nM] | SMILES |
| --- | --- | --- | --- | --- | --- |
| 31.6 | 118 | 195 | 5250 | 64.6 | CC(C)Nc1ccc(C(=O)Nc2cc(C(=O)N3CCC(c4ccc(-c5ccnc6ccccc56)cc4)CC3)ccc2Cl)cn1 [Compound 68, N-(2-chloro-5-(4-(4-(quinolin-4-yl)phenyl)piperidine-1-carbonyl)phenyl)-6-(isopropylamino)nicotinamide] |
| 28.8 | 98 | 75.9 | 7590 | 41.7 | CC(C)Nc1ccc(C(=O)Nc2cc(C(=O)N3CCC(c4ccc(-c5cnn(C)c5)cc4)CC3)ccc2Cl)cn1 [Compound 69, N-(2-chloro-5-(4-(4-(1-methyl-1H-pyrazol-4-yl)phenyl)piperidine-1-carbonyl)phenyl)-6-(isopropylamino)nicotinamide] |
| 56.2 | 109 | 437 | 3550 | 245 | CC(C)Nc1ccc(C(=O)Nc2cc(C(=O)N3CCC(c4ccc(-c5ccnn5C)cc4)CC3)ccc2Cl)cn1 [Compound 70, N-(2-chloro-5-(4-(4-(1-methyl-1H-pyrazol-5-yl)phenyl)piperidine-1-carbonyl)phenyl)-6-(isopropylamino)nicotinamide] |
| 47.9 | 101 | 447 | 5250 | 234 | CC(C)Nc1ccc(C(=O)Nc2cc(C(=O)N3CCC(c4ccc(-c5cccnc5)cc4)CC3)ccc2Cl)cn1 [Compound 71, N-(2-chloro-5-(4-(4-(pyridin-3-yl)phenyl)piperidine-1-carbonyl)phenyl)-6-(isopropylamino)nicotinamide] |
| 39.8 | 110 | 513 | 2630 | 251 | CC(C)Nc1ccc(C(=O)Nc2cc(C(=O)N3CCC(c4ccc(-c5ccncc5)cc4)CC3)ccc2Cl)cn1 [Compound 72, N-(2-chloro-5-(4-(4-(pyridin-4-yl)phenyl)piperidine-1-carbonyl)phenyl)-6-(isopropylamino)nicotinamide] |
| 93.3 | 108 | 525 | ~9550 | 182 | Cc1ccc(C(=O)N2CC(c3ccc(-c4cnn(C)c4)cc3)C2)cc1NC(=O)c1ccc2ccccc2n1 [Compound 79, N-(2-methyl-5-(3-(4-(1-methyl-1H-pyrazol-4-yl)phenyl)azetidine-1-carbonyl)phenyl)quinoline-2-carboxamide] |
| 51.3 | 110 | 692 | > 15100 | 234 | Cc1ccc(C(=O)N2CC(c3ccc(-c4cnn(C)c4)cc3)C2)cc1NC(=O)c1ccccn1 [Compound 80, N-(2-methyl-5-(3-(4-(1-methyl-1H-pyrazol-4-yl)phenyl)azetidine-1-carbonyl)phenyl)picolinamide] |
| 22.9 | 98 | 95.5 | > 10000 | 85.1 | Cc1ccc(C(=O)N2CC(c3ccc(-c4cnn(C)c4)cc3)C2)cc1NC(=O)c1ccccc1F [Compound 82, 2-fluoro-N-(2-methyl-5-(3-(4-(1-methyl-1H-pyrazol-4-yl)phenyl)azetidine-1-carbonyl)phenyl)benzamide] |
| 37.2 | 103 | 234 | > 10000 | 162 | Cc1ccc(C(=O)N2CC(c3ccc(-c4cnn(C)c4)cc3)C2)cc1NC(=O)c1cccs1 [Compound 84, N-(2-methyl-5-(3-(4-(1-methyl-1H-pyrazol-4-yl)phenyl)azetidine-1-carbonyl)phenyl)thiophene-2-carboxamide] |
| 22.4 | 106 | 182 | > 10000 | 75.9 | Cc1ccc(C(=O)N2CCC(c3ccc(-c4cnn(C)c4)cc3)CC2)cc1NC(=O)C1CCCCC1 [Compound 86, N-(2-methyl-5-(4-(4-(1-methyl-1H-pyrazol-4-yl)phenyl)piperidine-1-carbonyl)phenyl)cyclohexanecarboxamide] |
| 182 | 96 | 575 | > 10000 | 288 | Cc1ccc(C(=O)N2CCC(c3ccc(-c4cnn(C)c4)cc3)CC2)cc1NC(=O)C(C)(C)C [Compound 87, N-(2-methyl-5-(4-(4-(1-methyl-1H-pyrazol-4-yl)phenyl)piperidine-1-carbonyl)phenyl)pivalamide] |
| 35.5 | 100 | 209 | > 10000 | 126 | Cc1ccc(C(=O)N2CCC(c3ccc(-c4cnn(C)c4)cc3)CC2)cc1NC(=O)C1CCCC1 [Compound 88, N-(2-methyl-5-(4-(4-(1-methyl-1H-pyrazol-4-yl)phenyl)piperidine-1-carbonyl)phenyl)cyclopentanecarboxamide] |
| 16.2 | 100 | 9.12 | 6030 | 30.9 | Cc1ccc(C(=O)N2CCC(c3ccc(-c4cnn(C)c4)cc3)CC2)cc1NC(=O)c1ccc(N(C)C(C)C)nc1 [Compound 92, 6-(Isopropyl(methyl)amino)-N-(2-methyl-5-(4-(4-(1-methyl-1H-pyrazol-4-yl)phenyl)piperidine-1-carbonyl)phenyl)nicotinamide] |
| 17.4 | 100 | 95.5 | > 10000 | 29.5 | COc1ccc(C(=O)Nc2cc(C(=O)N3CCC(c4ccc(-c5cnn(C)c5)cc4)CC3)ccc2C)cc1 [Compound 93, 4-methoxy-N-(2-methyl-5-(4-(4-(1-methyl-1H-pyrazol-4-yl)phenyl)piperidine-1-carbonyl)phenyl)benzamide] |
| 20.4 | 100 | 148 | 7590 | 83.2 | COc1cccc(C(=O)Nc2cc(C(=O)N3CCC(c4ccc(-c5cnn(C)c5)cc4)CC3)ccc2C)c1 [Compound 94, 3-methoxy-N-(2-methyl-5-(4-(4-(1-methyl-1H-pyrazol-4-yl)phenyl)piperidine-1-carbonyl)phenyl)benzamide] |
| 26.3 | 105 | 263 | 3470 | 151 | Cc1ccc(C(=O)N2CCC(c3ccc(-c4cnn(C)c4)cc3)CC2)cc1NC(=O)c1cccc(Cl)c1 [Compound 95, 3-chloro-N-(2-methyl-5-(4-(4-(1-methyl-1H-pyrazol-4-yl)phenyl)piperidine-1-carbonyl)phenyl)benzamide] |
| 31.6 | 103 | 145 | > 10000 | 155 | Cc1ccc(C(=O)N2CCC(c3ccc(-c4cnn(C)c4)cc3)CC2)cc1NC(=O)c1ccccc1Cl [Compound 96, 2-chloro-N-(2-methyl-5-(4-(4-(1-methyl-1H-pyrazol-4-yl)phenyl)piperidine-1-carbonyl)phenyl)benzamide] |
| 170 | 89 | 501 | 6030 | 324 | Cc1ccc(C(=O)N2CC(c3ccc(-c4cnn(C)c4)cc3)C2)cc1NC(=O)c1cccc(C(F)(F)F)n1 [Compound 97, N-(2-methyl-5-(3-(4-(1-methyl-1H-pyrazol-4-yl)phenyl)azetidine-1-carbonyl)phenyl)-6-(trifluoromethyl)picolinamide] |
| 30.2 | 102 | 46.8 | 1200 | 91.2 | Cc1cc(C(=O)Nc2cc(C(=O)N3CCC(c4ccc(-c5cnn(C)c5)cc4)CC3)ccc2C)ccn1 [Compound 98, 2-methyl-N-(2-methyl-5-(4-(4-(1-methyl-1H-pyrazol-4-yl)phenyl)piperidine-1-carbonyl)phenyl)isonicotinamide] |
| 107 | 92 | 389 | 6310 | 295 | Cc1ccc(C(=O)N2CCC(c3ccc(-c4cnn(C)c4)cc3)CC2)cc1NC(=O)c1sccc1Cl [Compound 99, 3-chloro-N-(2-methyl-5-(4-(4-(1-methyl-1H-pyrazol-4-yl)phenyl)piperidine-1-carbonyl)phenyl)thiophene-2-carboxamide] |
| 47.9 | 105 | 91.2 | > 10000 | 155 | Cc1ccc(C(=O)N2CCC(c3ccc(-c4cnn(C)c4)cc3)CC2)cc1NC(=O)c1cccnc1Cl [Compound 101, 2-Chloro-N-(2-methyl-5-(4-(4-(1-methyl-1H-pyrazol-4-yl)phenyl)piperidine-1-carbonyl)phenyl)nicotinamide] |
